Measured values reported in patent US12509431B2, “1,4-dihydroquinazolinone compounds and uses thereof” (Edgewise Therapeutics, Inc., priority 2022, dated 2025).

Legend:
Assay type in all cases: biochemical
Conditions in all cases: Table 7
[1] = system: Rabbit Skeletal myofibrils (rabbit psoas muscle); assay: Myofibril ATPase assay (PK/LDH NADH-coupled), skeletal myofibrils
Outline: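 ATPase rate taken as linear-regression slope of A340 (NADH depletion through PK/LDH coupling) over a 75 min kinetic read, with psoas-derived rabbit skeletal myofibrils at pH 7.0. Four-parameter fits of vehicle-normalized activity give EC25 and, where reached, EC50.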

[2] = biological target: T1, Porcine Ventricle myofibrils (left ventricle of Yucatan minipigs) (Sus scrofa, UniProt P79293); assay: Myofibril ATPase assay (PK/LDH NADH-coupled), ventricle myofibrils
T1 construct: Myofibrils from porcine cardiac muscle was isolated from the left ventricle of Yucatan minipigs; tissue Exemplar Genetics; host or cells: left ventricle of Yucatan minipigs
Outline: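 NADH depletion (A340) coupled through pyruvate kinase/lactate dehydrogenase reports ATPase rate of porcine left-ventricle myofibrils over 75 min kinetic reads. Regression slopes, vehicle-normalized, fitted by 4-parameter logistic give EC25 and, where available, EC50.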

[3] = system: Porcine Atria myofibrils; assay: Myofibril ATPase assay (PK/LDH NADH-coupled), atria myofibrils
Outline: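 Values are EC25% (and, for inhibitors, EC50%) from 4-parameter logistic fits of activity normalized to vehicle wells. Rates came from linear regression of 340 nm kinetic reads (every 1.5-2 min, 75 min) of NADH-coupled ATP turnover by porcine atria myofibrils.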

T1 sequence (P79293 whole entry): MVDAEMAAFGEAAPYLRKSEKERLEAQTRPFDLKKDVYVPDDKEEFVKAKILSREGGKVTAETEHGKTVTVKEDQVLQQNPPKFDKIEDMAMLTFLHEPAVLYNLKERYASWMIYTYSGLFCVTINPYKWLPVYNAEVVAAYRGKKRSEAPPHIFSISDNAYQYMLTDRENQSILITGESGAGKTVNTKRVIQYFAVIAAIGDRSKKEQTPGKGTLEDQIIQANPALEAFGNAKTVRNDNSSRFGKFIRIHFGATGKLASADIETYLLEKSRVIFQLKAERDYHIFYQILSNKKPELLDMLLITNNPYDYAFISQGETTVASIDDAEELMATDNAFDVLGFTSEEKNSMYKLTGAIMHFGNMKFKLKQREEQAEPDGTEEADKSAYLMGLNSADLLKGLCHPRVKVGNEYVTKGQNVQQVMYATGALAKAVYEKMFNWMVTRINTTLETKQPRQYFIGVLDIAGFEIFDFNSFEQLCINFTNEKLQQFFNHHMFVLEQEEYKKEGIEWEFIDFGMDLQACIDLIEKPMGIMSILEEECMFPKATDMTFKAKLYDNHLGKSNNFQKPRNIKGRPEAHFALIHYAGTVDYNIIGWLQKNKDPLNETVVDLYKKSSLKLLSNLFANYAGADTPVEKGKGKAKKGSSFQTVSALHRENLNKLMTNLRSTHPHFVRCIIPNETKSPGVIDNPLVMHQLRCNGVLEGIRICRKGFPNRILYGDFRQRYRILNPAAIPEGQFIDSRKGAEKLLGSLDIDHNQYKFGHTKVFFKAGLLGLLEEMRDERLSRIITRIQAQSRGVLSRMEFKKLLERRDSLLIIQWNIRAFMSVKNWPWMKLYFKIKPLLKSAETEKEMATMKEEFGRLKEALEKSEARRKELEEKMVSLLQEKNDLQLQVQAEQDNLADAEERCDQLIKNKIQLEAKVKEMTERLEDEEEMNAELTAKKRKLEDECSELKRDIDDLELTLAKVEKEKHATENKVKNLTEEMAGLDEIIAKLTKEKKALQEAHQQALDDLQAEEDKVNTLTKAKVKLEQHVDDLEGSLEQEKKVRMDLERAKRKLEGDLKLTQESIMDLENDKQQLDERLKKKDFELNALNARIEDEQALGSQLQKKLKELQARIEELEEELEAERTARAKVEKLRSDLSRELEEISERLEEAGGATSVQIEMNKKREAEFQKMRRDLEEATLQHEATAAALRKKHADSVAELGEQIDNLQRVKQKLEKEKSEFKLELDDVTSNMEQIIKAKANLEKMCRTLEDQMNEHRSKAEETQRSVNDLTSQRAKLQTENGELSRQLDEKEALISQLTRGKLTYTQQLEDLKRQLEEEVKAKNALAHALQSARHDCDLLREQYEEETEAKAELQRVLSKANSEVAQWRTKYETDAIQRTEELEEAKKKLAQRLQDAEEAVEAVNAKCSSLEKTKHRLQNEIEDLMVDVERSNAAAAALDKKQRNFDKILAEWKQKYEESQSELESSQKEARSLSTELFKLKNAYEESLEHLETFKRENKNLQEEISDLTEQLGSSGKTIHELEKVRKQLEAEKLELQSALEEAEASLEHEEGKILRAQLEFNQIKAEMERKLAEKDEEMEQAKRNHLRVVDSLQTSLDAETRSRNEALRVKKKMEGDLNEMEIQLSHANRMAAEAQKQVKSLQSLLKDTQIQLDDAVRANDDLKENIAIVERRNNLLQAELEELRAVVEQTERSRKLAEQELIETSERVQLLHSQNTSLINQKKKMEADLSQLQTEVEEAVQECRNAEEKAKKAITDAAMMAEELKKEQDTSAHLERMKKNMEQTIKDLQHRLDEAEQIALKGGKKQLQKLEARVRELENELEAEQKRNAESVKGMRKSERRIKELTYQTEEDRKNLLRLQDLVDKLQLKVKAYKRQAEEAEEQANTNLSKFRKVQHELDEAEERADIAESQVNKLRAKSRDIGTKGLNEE

SMILES | Rabbit Psoas IC25 [1] [µM] | Porcine Ventricle IC25 [2] [µM] | Porcine Atria IC25 [3] [µM]
C[C@H](NC(=O)CN1Cc2c(F)cncc2NC1=O)c1ncc(F)cc1F [Compound N64] | 16.71 | 100 | 25.37
CC(NC(=O)CN1Cc2c(ccnc2C(N)=O)NC1=O)c1ncc(F)cc1F (stereo not drawn) [Compound N65] | 100 | 100 | 100.00
C[C@H](NC(=O)CN1Cc2c(ccnc2OC2COC2)NC1=O)c1ccc(F)cc1F [Compound N66] | 0.3112 | 100 | 29.35
COc1ccc2c(n1)C1(CC1)N(CC(=O)N[C@H](C)c1ncc(F)cc1F)C(=O)N2 [Compound N67] | 100 | 100 | 100.00
COc1ccc2c(n1)C1(CC1)N(CC(=O)N[C@@H](C)c1ncc(F)cc1F)C(=O)N2 [Compound N68] | 0.0442 | 1.833 | 0.13
C[C@@H](NC(=O)CN1Cc2cc(F)cnc2NC1=O)c1ncc(F)cc1F [Compound N69] | 100 | 100 | 100.00
C[C@H](NC(=O)CN1Cc2cc(F)cnc2NC1=O)c1ncc(F)cc1F [Compound N70] | 100 | 100 | 100.00
C[C@H](NC(=O)CN1Cc2cc(F)cnc2NC1=O)c1ccc(F)cc1F [Compound N71, N-[(1S)-1-(2,4-Difluorophenyl)ethyl]-2-{6-fluoro-2-oxo-1H,4H-pyrido[2,3-d]pyrimidin-3-yl}acetamide] | 2.804 | 100 | 36.26
C[C@H](NC(=O)CN1Cc2c(F)cncc2NC1=O)c1ccc(F)cc1F [Compound N72, N-[(1S)-1-(2,4-Difluorophenyl)ethyl]-2-{5-fluoro-2-oxo-1H,4H-pyrido[3,4-d]pyrimidin-3-yl}acetamide] | 0.4483 | 39.96 | 3.14
C[C@@H](NC(=O)CN1Cc2c(ccnc2C(F)(F)F)NC1=O)c1ccc(C#N)cc1F [Compound N73] | 35.6 | 100 | 100.00
C[C@H](NC(=O)CN1Cc2c(ccnc2C(F)(F)F)NC1=O)c1ccc(C#N)cc1F [Compound N74] | 0.07565 | 1.559 | 0.54
C[C@@H](NC(=O)CN1Cc2cc(Cl)cnc2NC1=O)c1ncc(F)cc1F [Compound N75] | 100 | 100 | 100.00
C[C@H](NC(=O)CN1Cc2cc(Cl)cnc2NC1=O)c1ncc(F)cc1F [Compound N76] | 100 | 100 | 100.00
C[C@H](NC(=O)CN1C(=O)Nc2cccnc2[C@H]1C)c1ccc(F)cc1F [Compound N77, N—((S)-1-(2,4-difluorophenyl)ethyl)-2-((R)-4-methyl-2-oxo-1,4-dihydropyrido[3,2-d]pyrimidin-3(2H)-yl)acetamide] | 2.441 | 24.08 | 2.11
C[C@H](NC(=O)CN1C(=O)Nc2cccnc2[C@@H]1C)c1ccc(F)cc1F [Compound N78, N—((S)-1-(2,4-difluorophenyl)ethyl)-2-((S)-4-methyl-2-oxo-1,4-dihydropyrido [3,2-d]pyrimidin-3(2H)-yl)acetamide] | 11.14 | 31.94 | 26.68
C[C@@H](NC(=O)CN1Cc2c(ccnc2C(F)(F)F)NC1=O)c1ncc(F)cc1F [Compound N79] | 100 | 100 | 100.00
C[C@H](NC(=O)CN1Cc2c(ccnc2C(F)(F)F)NC1=O)c1ncc(F)cc1F [Compound N80] | 4.79 | 100 | 8.03
C[C@H](NC(=O)CN1Cc2c(ccnc2C#N)NC1=O)c1ccc(F)cc1F [Compound N81] | 0.04549 | 0.545 | 0.24
C[C@H](NC(=O)CN1Cc2cc(Cl)cnc2NC1=O)c1ccc(F)cc1F [Compound N82] | 100 | 100 | 100.00
C[C@H](NC(=O)[C@H](C)N1Cc2ncccc2NC1=O)c1ccc(F)cc1F [Compound N83] | 1.802 | 100 | 0.74

SMILES | Rabbit Psoas IC25 [1] [µM] | Porcine Ventricle IC25 [2] [µM] | Porcine Atria IC25 [3] [µM]
C[C@H](NC(=O)[C@@H](C)N1Cc2ncccc2NC1=O)c1ccc(F)cc1F [Compound N84] | 10.25 | 100 | 3.69
C[C@H](NC(=O)CN1C(=O)Nc2ccncc2[C@H]1C)c1ccc(F)cc1F [Compound N85] | 4.254 | 100 | 18.87
C[C@H](NC(=O)CN1C(=O)Nc2ccncc2[C@@H]1C)c1ccc(F)cc1F [Compound N86] | 10.83 | 100 | 30.96
COc1ccc2c(n1)C1(CC1)N(CC(=O)N[C@@H](C)c1ccc(F)cc1F)C(=O)N2 [Compound N87, N-[(1S)-1-(2,4-Difluorophenyl)ethyl]-2-{6′-methoxy-2′-oxo-1′H-spiro[cyclopropane-1,4′-pyrido[3,2-d]pyrimidin]-3′-yl}acetamide] | 0.0571 | 0.1682 | 0.03
C[C@H](NC(=O)CN1C(=O)Nc2cccnc2C12CC2)c1ccc(F)cc1F [Compound N88] | 0.1726 | 0.7484 | 0.13
CC(C)C[C@@H](C(=O)N[C@@H](C)c1ccc(F)cc1F)N1Cc2nc(F)ccc2NC1=O [Compound N89] | 100 | 100 | 100.00
CC(C)C[C@H](C(=O)N[C@@H](C)c1ccc(F)cc1F)N1Cc2nc(F)ccc2NC1=O [Compound N90] | 49.64 | 100 | 100.00
Cc1ncc2c(n1)CN(CC(=O)N[C@@H](C)c1ccc(F)cc1F)C(=O)N2 [Compound N91] | 17.09 | 100 | 56.88
C[C@H](NC(=O)[C@H](C)N1Cc2nc(F)ccc2NC1=O)c1ccccc1F [Compound N92] | 100 | 100 | 100.00
C[C@H](NC(=O)[C@@H](C)N1Cc2nc(F)ccc2NC1=O)c1ccccc1F [Compound N93] | 100 | 100 | 1.66
C[C@H](NC(=O)[C@H](C)N1Cc2c(ccnc2Br)NC1=O)c1ccc(F)cc1F [Compound N94] | 0.0739 | 0.4952 | 0.22
C[C@H](NC(=O)[C@@H](C)N1Cc2c(ccnc2Br)NC1=O)c1ccc(F)cc1F [Compound N95] | 0.9565 | 5.968 | 3.69
C[C@H](NC(=O)[C@H](Cc1ccccc1)N1Cc2nc(F)ccc2NC1=O)c1ccc(F)cc1F [Compound N96] | 100 | 100 | 100.00
C[C@H](NC(=O)[C@@H](Cc1ccccc1)N1Cc2nc(F)ccc2NC1=O)c1ccc(F)cc1F [Compound N97] | 90.25 | 100 | 100.00
C[C@H](NC(=O)[C@H](C)N1Cc2nc(F)ccc2NC1=O)c1ccc(F)cc1 [Compound N98] | 8.57 | 71.64 | 0.36
C[C@H](NC(=O)[C@@H](C)N1Cc2nc(F)ccc2NC1=O)c1ccc(F)cc1 [Compound N99] | 100 | 100 | 8.28
O=C(CN1Cc2c(ccnc2Cl)NC1=O)N[C@@H](c1ccc(F)cc1F)C(F)(F)F [Compound N100] | 9.48 | 100 | 100.00
O=C(CN1Cc2c(ccnc2Cl)NC1=O)N[C@H](c1ccc(F)cc1F)C(F)(F)F [Compound N101] | 0.1554 | 1.94 | 0.27
C[C@H](NC(=O)CN1Cc2nc(Br)ccc2NC1=O)c1ccc(F)cc1F [Compound N103] | 1.03 | 9.96 | 0.16
C[C@@H](NC(=O)CN1Cc2nc(F)ccc2NC1=O)c1ncc(F)cc1F [Compound N104, N-[(1R)-1-(3,5-Difluoropyridin-2-yl)ethyl]-2-[6-fluoro-2-oxo-1H,4H-pyrido[3,2-d]pyrimidin-3-yl]acetamide] | 0.1699 | 4.155 | 0.16
